According to patent US20250257064A1, “TRIFLUOROMETHYL-SUBSTITUTED SULFONAMIDE AS BCL-2-SELECTIVE INHIBITOR” (Chia Tai Tianqing Pharmaceutical Group Co., Ltd., priority 2018, published 2025):

Key:
[1] = molecular target: T1, BCL-XL/BAK (Homo sapiens, UniProt Q07817); experiment: Screening on inhibitory activity for BCL-XL/BAK binding (Cisbio HTRF kit)
T1 construct: purchased Cisbio
Procedure, shortened: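 Tag1-BCL-XL and Tag2-BAK (2 nM and 80 nM before mixing) were combined with compounds at final 2000–0.488 nM (4-fold, 7 points, duplicates) for 15 min at 25° C. Eu3+ anti-Tag1 and XL665 anti-Tag2 were then added for ≥2 h at 25° C. HTRF (620/665 nm) gave IC50 by four-parameter fit.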

[2] = In vitro stability in human liver microsomes; type: in vitro ADME; conditions: 1 μM
Description: (§1) Experimental Example 3: In Vitro Stability in Liver Microsome
(§2) 300 μL of the final incubation system contains 30 μL of liver microsomes (protein concentration: 5 mg/mL), 30 μL of NADPH+MgCl2, 3 μL of the test compound (in acetonitrile), and 237 μL of PBS buffer (pH 7.4), wherein the proportion of the organic solvent (acetonitrile) is 1% (volume ratio). Two duplicate samples were prepared for each specie (mouse, rat and human), and each sample was 0.3 mL. Each tube which was added with 270 μL of a mixed solution of substrate and enzyme, and NADPH, after being pre-incubated at 37° C. for 5 min, was added with 30 μL of NADPH+MgCl2 and mixed. Then 50 μL of the mixture was taken at 0 min, 15 min, 30 min and 60 min, and added with 300 μL of glacial acetonitrile containing an internal standard to terminate the reaction.
(§3) 50 μL of the incubated sample was added with 300 μL of glacial acetonitrile containing an internal standard (20 ng/mL diazepam) for precipitation, vortexed for 5 min, and centrifuged (13,000 rpm, 20° C.) for 10 min. 70 μL of supernatant was taken and diluted with 70 μL of ultrapure water. After being mixed well, 1 μL of the resulting sample was injected for analysis.

[3] = molecular target: T2, BCL-2/BAK (Homo sapiens, UniProt P10415); experiment: Screening on inhibitory activity for BCL-2/BAK binding (Cisbio HTRF kit)
T2 construct: purchased Cisbio
T2 sequence (P10415 whole entry, species assumed): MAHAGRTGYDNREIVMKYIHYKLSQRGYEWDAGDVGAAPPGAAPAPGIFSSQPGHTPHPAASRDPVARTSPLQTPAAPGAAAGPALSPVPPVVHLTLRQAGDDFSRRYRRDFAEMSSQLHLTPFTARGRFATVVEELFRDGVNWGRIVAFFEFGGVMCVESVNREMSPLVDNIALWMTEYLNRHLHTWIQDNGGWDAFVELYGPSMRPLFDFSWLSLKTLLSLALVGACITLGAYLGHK
Procedure, shortened: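 HTRF competition assay: Tag1-BCL-2 and Tag2-BAK working dilutions were 5 nM and 120 nM. Compound (200–0.0488 nM final, 4-fold, 7 points, duplicates) was incubated with the proteins for 15 min at 25 °C, then with Eu-cryptate/XL665 antibodies for ≥2 h at 25 °C. IC50 was derived from a four-parameter fit.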

[4] = tested on: human platelet Caspase-3 activity; experiment: Human platelet toxicity experiment (Caspase-3 activity assay); type: cell-based; conditions: 90 min, data normalized, reference ABT-199
Description: Experimental Example 6: Human Platelet Toxicity Experiment (Caspase-3 Activity Assay)
10 mL of human whole blood was collected using a heparin sodium anticoagulation tube, mixed well by turning upside down, and centrifuged at 90 g for 10 min. The supernatant was collected and centrifuged at 1950 g for 10 min. The supernatant was discarded, and the residue was resuspended in 4 mL of PBS, and centrifuged at 1190 g for 5 min, and the procedure was repeated once. The supernatant was discarded, and the platelets were resuspended in PBS and adjusted to the density of 2-3×10^8 cells/mL. Cells were seeded into a 96-well plate at a density of 2-3×10^7 cells/mL and at 100 μL/well. 50 μL of control buffer was added to each negative control well, and 50 μL of compound at a corresponding concentration was added to each compound well, so that the final concentration of the compound was 2.5 μM, 2 μM, 1 μM or 0.5 μM, followed by incubation in an incubator at 37° C. for 90 min. The liquids in the 96-well plate were transferred to 1.5 mL centrifuge tubes, respectively. The tubes were centrifuged at 4° C. and 6000 g for 5 min, and placed on ice for later use after the supernatant was discarded. 5× lysis buffer was diluted into 1× lysis buffer with water in the kit, and protease inhibitor cocktail was added at a 1:200 ratio to prepare a lysis mixture for later use. 40 μL of lysis mixture was added to each centrifuge tube, and the platelets at the bottom were resuspended using a pipette. The suspension was lysed on ice for 15-20 min and centrifuged at 4° C. and 14,000 g for 10 min. The sample was sub-packaged for later use. 10× assay buffer was diluted into 1× assay buffer with water in the kit, and substrate Ac-DEVD-AMC was added at a 1:600 ratio to prepare a reaction mixture. 5 μL of assay buffer and 40 μL of reaction mixture were added to each blank control well. 5 μL of control platelet lysate and 40 μL of reaction mixture were added to each negative control well. 5 μL of platelet lysate and 40 μL of reaction mixture were added to each compound well. In this procedure, 40 μL of reaction mixture was added at last. The resulting mixture was mixed gently, and the plate was read by a PE Envision multi-functional microplate reader (excitation: 360 nm, emission: 460 nm) once every 10 min for 6 times. Caspase-3 activity was determined based on the intensity of the released AMC fluorescence, that is the slope of the fitted line to which each well corresponds represents Caspase activity (all data were normalized and the reference was ABT-199).

[5] = In vitro stability in mouse liver microsomes; type: in vitro ADME; conditions: 1 μM
Description: as §1, §2, §3

[6] = tested on: RS4;11 cells; experiment: Inhibitory effect on proliferation of RS4;11 cells (CCK-8); type: cell-based, human; conditions: Homo sapiens, RS4-11, 72 h
Procedure, shortened: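 RS4;11 cells were seeded at 1×10^5 cells/mL in RPMI with 5% FBS and incubated 24 h at 37° C, 5% CO2 before compound addition in duplicate. Inhibition was calculated against untreated and blank controls. IC50 came from a four-parameter fit of log concentration versus inhibition.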

[7] = In vitro stability in rat liver microsomes; type: in vitro ADME; conditions: 1 μM
Description: as §1, §2, §3

T1 sequence (Q07817 whole entry, species assumed): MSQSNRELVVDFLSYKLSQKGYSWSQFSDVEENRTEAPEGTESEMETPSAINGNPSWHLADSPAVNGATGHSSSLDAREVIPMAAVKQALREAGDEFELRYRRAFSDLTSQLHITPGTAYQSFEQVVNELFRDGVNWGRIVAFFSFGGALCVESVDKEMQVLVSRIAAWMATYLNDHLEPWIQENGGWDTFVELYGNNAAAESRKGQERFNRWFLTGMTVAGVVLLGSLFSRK

| IC50 [1] [nM] | Human Residual content after 60 min (%) [2] [%] | IC50 [3] [nM] | Mouse Residual content after 60 min (%) [5] [%] | IC50 [6] [nM] | Rat Residual content after 60 min (%) [7] [%] | Compound | human platelet Caspase-3 activity, Slope ([4]; compound concentration 1 μM) | human platelet Caspase-3 activity, Slope ([4]; compound concentration 0.5 μM) | human platelet Caspase-3 activity, Slope ([4]; compound concentration 2 μM) |
| --- | --- | --- | --- | --- | --- | --- | --- | --- | --- |
| 1970 | 65.9 | 5.7 | 65.3 | 2.4 | 61.2 | CC1(C)CCC(CN2CCN(c3ccc(C(=O)NS(=O)(=O)c4ccc(NCC5CCOCC5)c([N+](=O)[O-])c4)c(Oc4cnc5[nH]ccc5c4)c3)CC2)=C(c2ccc(C(F)(F)F)c(F)c2)C1 [Compound 6-1, 4-(4-{[2-(3-fluoro-4-trifluoromethylphenyl)-4,4-dimethylcyclohex-1-enyl]methyl}-piperazin-1-yl)-N-({3-nitro-4-[(tetrahydro-2H-pyran-4-ylmethyl)amino]phenyl}sulfonyl)-2-(1H-pyrrolo[2,3-b]pyridin-5-yloxy)-benzamide] | 0.45 | – | – |
| 140 | 67.4 | 1.6 | 62.9 | 2.5 | 66.3 | COCC(=O)N1CCO[C@H](CNc2ccc(S(=O)(=O)NC(=O)c3ccc(N4CCN(CC5=C(c6ccc(C(F)(F)F)cc6Cl)CC(C)(C)CC5)CC4)cc3Oc3cnc4[nH]ccc4c3)cc2[N+](=O)[O-])C1 [Compound 11-1] | – | 0.42 | 0.57 |
| 113 | 91.3 | 1.4 | 93.4 | 1.7 | 80.2 | CC1(C)CCC(CN2CCN(c3ccc(C(=O)NS(=O)(=O)c4ccc(NCC5CN(S(C)(=O)=O)CCO5)c([N+](=O)[O-])c4)c(Oc4cnc5[nH]ccc5c4)c3)CC2)=C(c2ccc(C(F)(F)F)cc2Cl)C1 (centres unmarked) [Compound 12-1, 4-(4-{[2-(2-chloro-4-trifluoromethylphenyl)-4,4-dimethylcyclohex-1-enyl]methyl}-piperazin-1-yl)-N-({3-nitro-4-[((4-methylsulfonylmorpholin-2-yl)methyl)amino]phenyl}sulfonyl)-2-(1H-pyrrolo[2,3-b]pyridin-5-yloxy)-benzamide] | – | 0.27 | 0.33 |
